Usually half-life stands for the time needed for the level to fall by half in the phase considered.

Data set [1] is described as follows: Selection of mixed solvent (Table 4). The data set is classed as physicochemical.
The conditions of data set [2]: in vivo, cited from earlier work.
The conditions of data set [3]: cited from earlier work.

For the molecule `CC1(C)S[C@@H]2[C@H](NC(=O)[C@H](N)c3ccc(O)cc3)C(=O)N2[C@H]1C(=O)O` [阿莫西林], in data set [1] (25 g amoxicillin, less than 100 ml dimethyl sulfoxide), the “dissolution when amount of dimethyl sulfoxide is reduced” value is recorded as “不能完全溶解”. In addition, the “volume of dimethyl sulfoxide required to dissolve 25 g amoxicillin as stable solution” value in data set [1] (from results of 2.2 and 2.3) was 100 mL. For the same molecule, the gastrointestinal absorption rate in data set [2] (po) is reported as 90%. Also, in data set [2], the half-life was roughly 1.02 h. Further, the “stability under acidic conditions” value in data set [3] is “稳定”.

The record behind these values is CN105663037A, “一种阿莫西林溶液剂及其制备方法和用途” (Chengdu Qiankun Veterinary Pharmaceutical Co Ltd, priority 2016, dated 2016).
